According to paper PMC6325200, “Effects of Microplate Type and Broth Additives on Microdilution MIC Susceptibility Assays” (Antimicrobial Agents and Chemotherapy, 2018):

Columns and labels:
E. coli = details: literature value; cited from earlier work
MRSA = details: literature value; cited from earlier work
From the text: TABLE 1 Literature MIC values for tested antibiotics | column: MIC (µg/ml) (reference[s]) / MRSA

E. coli ATCC 25922 = assay: microbe, parasite or virus in culture; details: n = 2
Summary of the method: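 Broth microdilution with 2-fold serial compound dilutions in MH broth, using cultures diluted 40-fold and grown at 37°C for 2 to 3 h, with or without Tween. Variants included 2% beractant added to mid-log cultures, or 50% human serum in MHB.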

A. baumannii ATCC 19606 = assay: microbe, parasite or virus in culture; details: Acinetobacter baumannii, n = 2
Summary of the method: (§1)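 First, a sample of each culture was diluted 40-fold in fresh Mueller-Hinton broth containing or lacking Tween. Next, this was incubated 2 to 3 h at 37°C. Compounds, alongside comparator antibiotics, were tested as 2-fold serial dilutions on 96-well plates.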

K. pneumoniae ATCC 13883 = assay: microbe, parasite or virus in culture; details: Klebsiella pneumoniae, n = 2
Summary of the method: as §1

P. aeruginosa ATCC 10145 = assay: microbe, parasite or virus in culture; details: Pseudomonas aeruginosa, n = 2
Summary of the method: as §1

CO[C@H]1/C=C/O[C@@]2(C)Oc3c(C)c(O)c4c(O)c(c(/C=N/N5CCN(C)CC5)c(O)c4c3C2=O)NC(=O)/C(C)=C\C=C\[C@H](C)[C@H](O)[C@@H](C)[C@@H](O)[C@@H](C)[C@H](OC(C)=O)[C@@H]1C [Rifampin, rifampin]
32 to 64 mg/L: MIC (P. aeruginosa ATCC 10145; ATCC10145, Corning PS, MHB +T80)
16 to 32 mg/L: MIC (P. aeruginosa ATCC 10145; ATCC10145, Corning NBS, MHB -T80) | MIC (P. aeruginosa ATCC 10145; ATCC10145, Corning PS, MHB -T80)
0.015 ([62]) µg/ml: MIC (literature) (MRSA)
2 ([74], [75]) µg/ml: MIC (literature) (E. coli)
32 mg/L: MIC (P. aeruginosa ATCC 10145; ATCC10145, Corning NBS, MHB +T80) | MIC (P. aeruginosa ATCC 10145; ATCC10145, Corning TC, MHB +T80) | MIC (P. aeruginosa ATCC 10145; ATCC10145, Corning TC, MHB -T80)
8 mg/L: MIC (E. coli ATCC 25922; Escherichia coli, ATCC25922, 24 h, Corning NBS, MH + 2% LHB, 50% HS) | MIC (E. coli ATCC 25922; Escherichia coli, ATCC25922, 24 h, Corning NBS, MH + T80, 50% HS) | MIC (E. coli ATCC 25922; Escherichia coli, ATCC25922, 24 h, Corning PS, MH + T80, 50% HS) | MIC (E. coli ATCC 25922; Escherichia coli, ATCC25922, 24 h, Corning TC, MH + 2% LHB, 2% LS) | MIC (E. coli ATCC 25922; Escherichia coli, ATCC25922, 24 h, Corning TC, MH + 2% LHB, no additive) | MIC (E. coli ATCC 25922; Escherichia coli, ATCC25922, 24 h, Corning TC, MH + T80, 50% HS) | MIC (E. coli ATCC 25922; Escherichia coli, ATCC25922, Corning NBS plate, MHB +0.002% T80, no further additive) | MIC (E. coli ATCC 25922; Escherichia coli, ATCC25922, Corning NBS, MH, 2% LS) | MIC (E. coli ATCC 25922; Escherichia coli, ATCC25922, Corning NBS, MH, 50% HS) | MIC (E. coli ATCC 25922; Escherichia coli, ATCC25922, Corning PS, MH, 2% LS) | MIC (E. coli ATCC 25922; Escherichia coli, ATCC25922, Corning TC plate, MHB +0.002% T80, no further additive) | MIC (E. coli ATCC 25922; Escherichia coli, ATCC25922, Corning TC, MH, 2% LS) | MIC (E. coli ATCC 25922; Escherichia coli, ATCC25922, Corning TC, MH, 50% HS) | MIC (E. coli ATCC 25922; Escherichia coli, ATCC25922, Nunc U TC plate, MHB +0.002% T80) | MIC (E. coli ATCC 25922; Escherichia coli, ATCC25922, Nunc flat TC plate, MHB +0.002% T80) | MIC (E. coli ATCC 25922; Escherichia coli, ATCC25922, Trek PS, MH, 50% HS)
4 to 8 mg/L: MIC (E. coli ATCC 25922; Corning NBS plate, MHB −T80, no additive) | MIC (E. coli ATCC 25922; Corning NBS plate, MHB −T80, no additive, listed as Rifampicin) | MIC (E. coli ATCC 25922; Corning PS plate, MHB −T80, no additive) | MIC (E. coli ATCC 25922; Corning PS plate, MHB −T80, no additive, listed as Rifampicin) | MIC (E. coli ATCC 25922; Corning TC plate, MHB −T80, no additive) | MIC (E. coli ATCC 25922; Corning TC plate, MHB −T80, no additive, listed as Rifampicin) | MIC (E. coli ATCC 25922; Escherichia coli, ATCC25922, 24 h, Corning NBS, MH + 2% LHB, 2% LS) | MIC (E. coli ATCC 25922; Escherichia coli, ATCC25922, 24 h, Corning NBS, MH + T80, 2% LS) | MIC (E. coli ATCC 25922; Escherichia coli, ATCC25922, 24 h, Corning PS, MH + 2% LHB, 2% LS) | MIC (E. coli ATCC 25922; Escherichia coli, ATCC25922, 24 h, Corning PS, MH + 2% LHB, 50% HS) | MIC (E. coli ATCC 25922; Escherichia coli, ATCC25922, 24 h, Corning PS, MH + 2% LHB, no additive) | MIC (E. coli ATCC 25922; Escherichia coli, ATCC25922, 24 h, Corning PS, MH + T80, 2% LS) | MIC (E. coli ATCC 25922; Escherichia coli, ATCC25922, 24 h, Corning TC, MH + T80, 2% LS) | MIC (E. coli ATCC 25922; Escherichia coli, ATCC25922, 24 h, Trek PS, MH + 2% LHB, no additive) | MIC (E. coli ATCC 25922; Escherichia coli, ATCC25922, 24 h, Trek PS, MH + T80, 50% HS) | MIC (E. coli ATCC 25922; Escherichia coli, ATCC25922, Corning NBS plate, MHB −T80, no additive) | MIC (E. coli ATCC 25922; Escherichia coli, ATCC25922, Corning PS plate, MHB −T80, no additive) | MIC (E. coli ATCC 25922; Escherichia coli, ATCC25922, Corning PS, MH, 50% HS) | MIC (E. coli ATCC 25922; Escherichia coli, ATCC25922, Corning TC plate, MHB −T80, no additive) | MIC (E. coli ATCC 25922; Escherichia coli, ATCC25922, Nunc PS plate, MHB +0.002% T80) | MIC (E. coli ATCC 25922; Escherichia coli, ATCC25922, Nunc U TC plate, MHB −T80) | MIC (E. coli ATCC 25922; Escherichia coli, ATCC25922, Trek PS, MH, 2% LS)
16 to 64 mg/L: MIC (K. pneumoniae ATCC 13883; ATCC13883, Corning PS, MHB +T80)
4 mg/L: MIC (E. coli ATCC 25922; Escherichia coli, ATCC25922, 24 h, Trek PS, MH + 2% LHB, 50% HS) | MIC (E. coli ATCC 25922; Escherichia coli, ATCC25922, 24 h, Trek PS, MH + T80, 2% LS) | MIC (E. coli ATCC 25922; Escherichia coli, ATCC25922, Nunc PS plate, MHB −T80) | MIC (E. coli ATCC 25922; Escherichia coli, ATCC25922, Nunc flat TC plate, MHB −T80) | MIC (E. coli ATCC 25922; Escherichia coli, ATCC25922, Trek PS plate, MHB −T80, no additive)
16 mg/L: MIC (K. pneumoniae ATCC 13883; ATCC13883, Corning NBS, MHB +T80) | MIC (K. pneumoniae ATCC 13883; ATCC13883, Corning NBS, MHB -T80) | MIC (K. pneumoniae ATCC 13883; ATCC13883, Corning TC, MHB +T80) | MIC (K. pneumoniae ATCC 13883; ATCC13883, Corning TC, MHB -T80)
2 mg/L: MIC (A. baumannii ATCC 19606; ATCC19606, Corning NBS, MHB +T80) | MIC (A. baumannii ATCC 19606; ATCC19606, Corning NBS, MHB -T80) | MIC (A. baumannii ATCC 19606; ATCC19606, Corning PS, MHB +T80) | MIC (A. baumannii ATCC 19606; ATCC19606, Corning PS, MHB -T80) | MIC (A. baumannii ATCC 19606; ATCC19606, Corning TC, MHB +T80)
8 to 16 mg/L: MIC (E. coli ATCC 25922; Corning PS plate, MHB +0.002% T80, no further additive) | MIC (E. coli ATCC 25922; Corning PS plate, MHB +0.002% T80, no further additive, listed as Rifampicin) | MIC (E. coli ATCC 25922; Escherichia coli, ATCC25922, 24 h, Corning TC, MH + 2% LHB, 50% HS) | MIC (E. coli ATCC 25922; Escherichia coli, ATCC25922, Corning PS plate, MHB +0.002% T80, no further additive) | MIC (E. coli ATCC 25922; Escherichia coli, ATCC25922, Trek PS plate, MHB +0.002% T80, no further additive) | MIC (E. coli ATCC 25922; Trek PS plate, MHB +0.002% T80, no further additive) | MIC (K. pneumoniae ATCC 13883; ATCC13883, Corning PS, MHB -T80)
2 to 4 mg/L: MIC (E. coli ATCC 25922; Escherichia coli, ATCC25922, 24 h, Corning NBS, MH + 2% LHB, no additive) | MIC (E. coli ATCC 25922; Escherichia coli, ATCC25922, 24 h, Trek PS, MH + 2% LHB, 2% LS) | MIC (A. baumannii ATCC 19606; ATCC19606, Corning TC, MHB -T80)
